“And” between values parts separate entries of the source, which are not always exact repeats. Identical values can stand only once.
Experiments:
[1] = system: SHSY5Y human neuronal cells; assay: MAP2 immunofluorescence/immunoblot, dendritic morphogenesis in SHSY5Y neurons; assay type: cell-based
Procedure: Primary neuronal cell culture was performed based on a protocol approved by the Institutional Animal Care and Use Committee (IACUC) of the University of Wisconsin-Milwaukee, Milwaukee, WI-53211, and by the guidelines set by the National Institute of Health. Embryonic day 18 (E18) fetuses were harvested, and hippocampal tissue was dissected from brains and then processed for single cell culture in poly-D-lysine-coated plates, as discussed elsewhere. Neuronal cells were maintained with B-27^TM-plus-supplemented complete neurobasal media for 7–10 days until fully differentiated. After that, the treatment with JRM-28 was performed. SHSY5Y cells were grown, maintained, and passaged with complete DMEM media (a bottle of DMEM supplemented with 10% FBS, 2 mM L-glutamine, and 100 units/mL antibiotics); otherwise, for neuronal differentiation study, SHSY5Y was seeded with complete neurobasal medium. For making AD neurons, commercially purchased (Axol Bioscience Ltd.) A246E psen1 neural stem cells (NSCs) were maintained with KnockOut^TM DMEM/F12 media supplemented with StemPro^TM Neural Supplement, bFGF, EGF, 2 mM GlutMAX^TM supplement, and 10 mL/L antibiotic-antimycotic solution. These […] NSCs were grown in a […] cell culture flask coated with Geltrex^TM matrix until fully confluent and then detached by Accutase, centrifuged, washed, and plated in a poly-D-lysine-coated plate supplemented with complete neurobasal media for neuronal differentiation. After one week, when neurons were differentiated, JRM-28 treatment was conducted.
Immunofluorescence analysis was performed as described earlier. Briefly, cells cultured on coverslip contained in six-well plates (Lab-Tek II) were fixed with 4% paraformaldehyde for 20 min followed by two rinses in TBST. Samples were incubated in a 1:1 solution of TBST and blocking buffer containing rabbit anti-NR2A (1:250), anti-GluR1 (1:250), ant-HDAC2 (1:250), anti-CREB (1:250), and anti-MAP2 (1:250) for 2 h at 37 °C. After three washes in PBST (15 min each), slides were further incubated with FIT-C and TRIT-C-conjugated secondary antibodies. […]

[2] = system: NR2A and GluR1; assay: NR2A and GluR1 immunofluorescence in E18 mouse hippocampal neurons; assay type: cell-based; conditions: 5 µM
Procedure: Immunofluorescence analysis was performed as described earlier. Briefly, cells cultured on coverslip contained in six-well plates (Lab-Tek II) were fixed with 4% paraformaldehyde for 20 min followed by two rinses in TBST. Samples were incubated in a 1:1 solution of TBST and blocking buffer containing rabbit anti-NR2A (1:250), anti-GluR1 (1:250), ant-HDAC2 (1:250), anti-CREB (1:250), and anti-MAP2 (1:250) for 2 h at 37 °C. After three washes in PBST (15 min each), slides were further incubated with FIT-C and TRIT-C-conjugated secondary antibodies. For negative controls, a set of culture slides was incubated under similar conditions with secondary antibodies and without the primary antibodies (Table 3). The samples were mounted and observed under an Accuscope fluorescent microscope. The images were captured and merged in CaptaVision^TM imaging software.

[3] = biological target: T1, HDAC2 (Homo sapiens, UniProt Q92769); assay: Fluorimetric HDAC inhibition assay, HDAC2; assay type: biochemical; set-up: purchased BPS Bioscience 50034 (HDAC Fluorogenic Assay Kit; enzyme supplied with kit); conditions: reduced with DTT
Procedure: The inhibition of HDAC1, 2, 3, and 6 by JRM-28 was fluorometrically measured using the HDAC Fluorogenic Assay Kit (Catalog# 50034) by BPS bioscience. Purified recombinant human HDAC1 (Cat# 50051), HDAC3 (Cat# 50003), and HDAC6 (Cat# 50056) were also obtained from BPS Bioscience. The enzyme inhibition assay was performed according to the manufacturer’s protocol. […] Purified recombinant HDAC2 (supplied with the fluorogenic kit) was diluted to 6 ng/µL (5 µL/well with the supplied HDAC assay buffer). HDAC 1, 3, and 6 were also diluted to the optimized concentration (5 µL/well) with the HDAC assay buffer. The activity of JRM-28 was measured along with DTT control and DMSO as blank. After adding 5 µL of the diluted HDAC enzymes in designated wells, the 96-well plate (supplied with the kit) was incubated at 37 °C. Then, the reaction was initiated by adding 5 µL of diluted HDAC substrate to each well, followed by another incubation at 37 °C for 30 min. Next, 50 µL of the developer reagent was added to each well and incubated at room temperature for another 15 min. Finally, fluorescence was measured by a microplate absorbance spectrophotometer (PerkinElmer Enspire 2300 Multilabel Multimode Microplate Reader) with an excitation at λ = 485 nm and detection at λ = 528 nm.

[4] = system: CREB; assay: CRE dual luciferase reporter assay; assay type: cell-based, human; conditions: increasing doses (2, 5, and 10 µM)
Procedure: CRE luciferase assay was performed using a dual luciferase kit (Cat# 60611; BPS Bioscience). The CRE reporter is premixed with a constitutively expressing Renilla (sea pansy) luciferase vector that serves as an internal control for transfection efficiency. The reporter construct is transfected in SHSY5Y cells with Lipofectamine3000^TM transfection reagent mixed with serum-free Opti-MEM^TM Transfection media followed by supplementation with 20% FBS-containing media. After 24 h, cells were treated with JRM-28 for 5 h, and then dual luciferase activity was measured by cell lysis. The reaction was set in a 96-well plate, and the assay endpoint was recorded in a PerkinElmer Enspire multimodal plate reader.

[5] = biological target: T1, HDAC2; assay: HDAC2 inhibition assay, luminometric method (HDAC-Glo I/II); assay type: biochemical; set-up: purchased BPS Bioscience 50002; conditions: for IC50: HDAC2 0.5 nM, read-out: IC50 HDAC2 inhibition (luminescence)
Procedure: HDAC2 inhibition assay was performed by either the luminometric or fluorimetric method applying the following procedures. The table (Table 1) represents the details of different HDAC proteins and antibodies used in all biochemical assays.
HDAC2 inhibition assay was performed by HDAC-Glo™ I/II Assays and Screening System (Catalog# G6420, Promega Corporation, Madison, WI, USA) by the luminometric method according to the manufacturer’s protocol. […] The HDAC-2 inhibition assay was performed as previously described to determine IC values. In brief, the purified HDAC2 was diluted in HDAC assay buffer (provided with the HDAC-Glo™ I/II Assays and Screening System) to the same concentration based on their calculated molar mass. […] Next, 10 µL of JRM-28 after serial dilution was added to 10 µL of diluted HDAC2 in such a way that the final HDAC2 concentration was 0.5 nM in each well of a 384-well microplate (Greiner, Kremsmünster, Austria). After 30 min of incubation, 20 µL of the HDAC-Glo substrate/developing reagent was added to each well according to the manufacturer’s instructions. The 384-well plate was then agitated on an orbital shaker for the mixing of components in each well for another 30 min at room temperature. Finally, luminescence was measured using a POLARstar Omega plate reader (BMG Labtech, Ortenberg, Germany).

T1 sequence (Q92769 whole entry): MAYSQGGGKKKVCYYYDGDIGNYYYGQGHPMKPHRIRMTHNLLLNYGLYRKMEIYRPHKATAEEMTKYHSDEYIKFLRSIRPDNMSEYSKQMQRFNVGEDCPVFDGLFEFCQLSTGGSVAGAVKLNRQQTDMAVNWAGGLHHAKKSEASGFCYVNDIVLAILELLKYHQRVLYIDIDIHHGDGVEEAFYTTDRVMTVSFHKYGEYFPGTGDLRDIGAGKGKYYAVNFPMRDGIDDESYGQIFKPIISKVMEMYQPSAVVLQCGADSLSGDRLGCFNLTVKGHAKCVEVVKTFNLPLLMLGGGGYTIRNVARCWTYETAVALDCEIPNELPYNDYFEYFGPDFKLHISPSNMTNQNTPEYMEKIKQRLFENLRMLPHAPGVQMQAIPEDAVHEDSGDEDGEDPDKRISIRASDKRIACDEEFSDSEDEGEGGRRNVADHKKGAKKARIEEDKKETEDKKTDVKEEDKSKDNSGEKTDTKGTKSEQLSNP

Structure (SMILES): CN(C(=O)CC(O)/C=C/CCSS(=O)(=O)CC/C=C/C(O)CC(=O)N(C)c1ccccc1)c1ccccc1 (stereo not drawn) [JRM-28, S-((E)-5-hydroxy-7-(methyl(phenyl)amino)-7-oxohept-3-en-1-yl) (E)-5-hydroxy-7-(methyl(phenyl)amino)-7-oxohept-3-ene-1-sulfonothioate]
- dendritic length / dendritic morphogenesis ([1]; 5 µM versus control, n = 200 per group): augmented the dendritic morphogenesis
- dendritic pruning (MAP2-ir appendages) ([1]; 5 µM, 48 h (legend: 24 h)): significantly stimulated dendritic pruning
- MAP2 expression (immunoblot) ([1]; 5 and 10 µM): upregulated the expressions of MAP2
- expressions of NR2A and GluR1 (IF, MFI) [2]: upregulated
- IC50 [3]: ~107 nM and 107 nM
- Hill slope HDAC2 (fluorimetric) ([3]; listed as JRM-28 (JRM-28a+28b)): −1.580
- CREB-driven reporter activity [4]: upregulated the CREB-driven reporter activity
- IC50 ([5]; in the presence of DTT (reduced)): 280 nM
- increase of HDAC2 inhibitory effect by addition of DTT ([5]; with DTT versus without DTT): ~200 fold
- IC50 ([5]; without DTT (non-reduced dimer)): 54900 nM
